Data reported in patent US7887794B2, “Lactic acid bacteria and their use in the treatment of cancer” (Bio-K Plus International, Inc., priority 2001, dated 2011).

Experiments:
[1] = tested on: human colon cancer; conditions: mice; cited from earlier work
[2] = tested on: colon cancer cells; experiment: addition of butyrate, apoptosis of colon cancer cells in vitro; format: cell-based, human
Protocol: The plate of cancer cells containing 3×10^5 cells per well is incubated overnight to allow the cells to adhere. Then, the different concentrations of butyric acid (Sigma, St-Louis, USA) are added to the wells containing the adherent cells and the culture medium, the complete RPMI. After this addition, a 48 hour incubation is done in order to measure the percentage of apoptosis according to the technique described hereinafter.
A dose of 5FU (100 μg/mL) as well as different doses (2 mM and 4 mM) of butyric acid (ba) are added to the cancerous colon cells. Apoptosis is measures after a 48 hour incubation.

[3] = tested on: LS 513 cells; experiment: apoptosis / cell cycle by flow cytometry with propidium iodide; format: cell-based, human; conditions: in the presence of intact (live or irradiated) bacteria; dose dependent
Protocol: A concentration of 5×10^4 cells per mL, with 6 mL per well, is used in order to obtain 3×10^5 cells per sample. The cells are prepared as indicated above. The different products are added to the wells, and an incubation of 48 hours is done. Following the incubation, the supernatants of the cells are collected in different 15 mL tubes and centrifuged at 1500 RPM during 5 minutes. The cellular pellets are then collected by decantation of the supernatant and put on ice. This stage consists in recuperating the cells in suspension. Afterwards, the adherent cellular sheet is washed with 0.5 mL trypsin-EDTA, then 0.2 mL trypsin-EDTA is added to each well to allow the cells to detach when they are incubated for around 8 minutes in the incubator at 37° C. The cells are suspended in 3 mL of complete RPMI 10% FCS to stop the enzymatic activity of trypsin. […] Different peaks are formed due to the differences in fluorescence existing between each phase of the cellular cycle. The more the content of intact DNA is high, the more the fluorescence is high and vice-versa. The program measures the percentage of fluorescence that the large spike forms under the corresponding spike of G0-G1, this spike represents pieces of fragmented DNA, consequence of the cleavage of DNA by different enzymes activated during apoptosis.

Compound | in vivo growth of human colon cancer [1] | apoptosis in colon cancer cells in vitro [2] | efficacy of the anticancer agent [3]
CCCC(=O)O [butyric acid] | inhibits the in vivo growth | causes apoptosis | 
O=c1[nH]cc(F)c(=O)[nH]1 [5FU, 5-fluorouracil] |  |  | considerably increased
